Test results published in ChEMBL document CHEMBL1201862, “PubChem BioAssay data set” (2004).
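Growth conditions: 96-well plates. Treatment: test compound, 48 hours, 5 concentrations. Analysis: linear interpolation between bracketing concentrations; unreached endpoints set to highest concentration. Abbreviation: GI50, concentration required for 50% inhibition of growth.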 The source made the active and inactive calls. Rule as the data show it: active = GI50 up to about 1.1 µM and inactive = higher.

Key:
Assay in all cases: inhibition of tumour cell growth, NCI panel, 48 h
LOX IMVI = test system: LOX IMVI
SK-OV-3 = test system: SK-OV-3
MOLT-4 = test system: MOLT-4
U-251 = test system: U-251
SNB-19 = test system: SNB-19
SW-620 = test system: SW-620
786-0 = test system: 786-0
NCI-H522 = test system: NCI-H522
SNB-75 = test system: SNB-75
ACHN = test system: ACHN
SK-MEL-5 = test system: SK-MEL-5
K562 = test system: K562
M14 = test system: M14
SF-268 = test system: SF-268
A498 = test system: A498
HOP-92 = test system: HOP-92

| SMILES | GI50 (LOX IMVI) | GI50 (SK-OV-3) | GI50 (MOLT-4) | GI50 (U-251) | GI50 (SNB-19) | GI50 (SW-620) | GI50 (786-0) | GI50 (NCI-H522) | GI50 (SNB-75) | GI50 (ACHN) | GI50 (SK-MEL-5) | GI50 (K562) | GI50 (M14) | GI50 (SF-268) | GI50 (A498) | GI50 (HOP-92) |
| --- | --- | --- | --- | --- | --- | --- | --- | --- | --- | --- | --- | --- | --- | --- | --- | --- |
| CCC1CCc2c(OC)ccc(OCC(=O)O)c2C1=O (stereo unspecified) | > 100 µM (inactive) | > 100 µM (inactive) | > 100 µM (inactive) | > 100 µM (inactive) | > 100 µM (inactive) | > 100 µM (inactive) | > 100 µM (inactive) | > 100 µM (inactive) | > 100 µM (inactive) | > 100 µM (inactive) | > 100 µM (inactive) | > 100 µM (inactive) | > 100 µM (inactive) | > 100 µM (inactive) |  |  |
| CCOC(=N)CC(=O)Nc1ccc(Cl)cc1 | > 100 µM (inactive) | > 100 µM (inactive) | > 100 µM (inactive) | > 100 µM (inactive) | > 100 µM (inactive) | > 100 µM (inactive) | > 100 µM (inactive) | > 100 µM (inactive) | > 100 µM (inactive) | > 100 µM (inactive) | > 100 µM (inactive) | > 100 µM (inactive) | > 100 µM (inactive) | > 100 µM (inactive) | > 100 µM (inactive) |  |
| O=C(/C=C/c1c(O)ccc2ccccc12)c1ccccc1 | 19.3 µM (inactive) | > 100 µM (inactive) | > 100 µM (inactive) | > 100 µM (inactive) | > 100 µM (inactive) | 22.5 µM (inactive) | 63.5 µM (inactive) | > 100 µM (inactive) | 0.413 µM (active) | > 100 µM (inactive) | > 100 µM (inactive) | 58.5 µM (inactive) | > 100 µM (inactive) | > 100 µM (inactive) | > 100 µM (inactive) | > 100 µM (inactive) |
| Cc1cc2c(c(N)c1C)C(=O)c1ccccc1C2=O | 17.7 µM (inactive) | 17.5 µM (inactive) | > 100 µM (inactive) | 20.3 µM (inactive) | 27.9 µM (inactive) | 59.7 µM (inactive) | 20.2 µM (inactive) | 21.7 µM (inactive) | 12.5 µM (inactive) | 14.1 µM (inactive) | 20.2 µM (inactive) | > 100 µM (inactive) | 29.2 µM (inactive) | 25.5 µM (inactive) | 19.7 µM (inactive) | 18 µM (inactive) |
| Cc1cc2cc(Cl)ccc2nc1C(=O)c1ccccc1 | > 100 µM (inactive) |  | > 100 µM (inactive) | > 100 µM (inactive) | > 100 µM (inactive) | > 100 µM (inactive) | > 100 µM (inactive) | > 100 µM (inactive) | 21.3 µM (inactive) | > 100 µM (inactive) | > 100 µM (inactive) | > 100 µM (inactive) | > 100 µM (inactive) | > 100 µM (inactive) |  |  |
| O=C(Nc1ccc(Cl)cc1C(=O)O)c1ccc([N+](=O)[O-])cc1 | 19.9 µM (inactive) | 18.2 µM (inactive) | 22.4 µM (inactive) | 18.8 µM (inactive) | 14.5 µM (inactive) | 29.7 µM (inactive) | 13.4 µM (inactive) |  | 45.4 µM (inactive) | 17.1 µM (inactive) | 20.3 µM (inactive) | 20.8 µM (inactive) | 24.3 µM (inactive) | 20.2 µM (inactive) | 9.77 µM (inactive) | 8.18 µM (inactive) |
| COc1cc(C2C(Cl)C(=O)N2NC(=O)Cc2ccccc2)cc(Br)c1O (stereo unspecified) | 74.3 µM (inactive) | > 100 µM (inactive) | 50.6 µM (inactive) | > 100 µM (inactive) | > 100 µM (inactive) | > 100 µM (inactive) | > 100 µM (inactive) | 56 µM (inactive) | 64.9 µM (inactive) | > 100 µM (inactive) | 69.8 µM (inactive) | > 100 µM (inactive) | > 100 µM (inactive) | 61 µM (inactive) |  |  |
| Cc1noc(C)c1CCCOC1COc2ccccc2OCCOCCOc2ccccc2OC1 | > 100 µM (inactive) | > 100 µM (inactive) |  | > 100 µM (inactive) | > 100 µM (inactive) | > 100 µM (inactive) | > 100 µM (inactive) | > 100 µM (inactive) | 65.8 µM (inactive) | > 100 µM (inactive) | > 100 µM (inactive) | > 100 µM (inactive) | > 100 µM (inactive) | > 100 µM (inactive) | > 100 µM (inactive) |  |
| O=C(O)CCC1CCc2cccc3occ1c23 (stereo unspecified) | > 100 µM (inactive) | > 100 µM (inactive) | > 100 µM (inactive) | > 100 µM (inactive) | > 100 µM (inactive) | > 100 µM (inactive) | > 100 µM (inactive) | > 100 µM (inactive) | > 100 µM (inactive) | > 100 µM (inactive) | > 100 µM (inactive) | > 100 µM (inactive) | > 100 µM (inactive) | > 100 µM (inactive) | > 100 µM (inactive) | > 100 µM (inactive) |
| COc1ccc(C(=O)N2c3ccccc3N(C)n3cccc3C2CC(=O)O)cc1 (stereo unspecified) | > 100 µM (inactive) | > 100 µM (inactive) | > 100 µM (inactive) |  | > 100 µM (inactive) | > 100 µM (inactive) | > 100 µM (inactive) | > 100 µM (inactive) | > 100 µM (inactive) | > 100 µM (inactive) | > 100 µM (inactive) | > 100 µM (inactive) | > 100 µM (inactive) | > 100 µM (inactive) | > 100 µM (inactive) | > 100 µM (inactive) |
| Nc1c(-c2nc3ccccc3s2)[n+]([O-])c2ccccc2[n+]1[O-] |  | 37 µM (inactive) | 32.7 µM (inactive) | 38.9 µM (inactive) | 29.3 µM (inactive) | 43.5 µM (inactive) | 32.1 µM (inactive) | 22 µM (inactive) | 26.7 µM (inactive) | 24.6 µM (inactive) | 17 µM (inactive) | 45.8 µM (inactive) | 29.6 µM (inactive) | 26.9 µM (inactive) | 33.2 µM (inactive) | 23.1 µM (inactive) |
| Cc1cc2c(C)nn(Cc3ccccc3)c2c(C(=O)O)c1C | > 100 µM (inactive) | > 100 µM (inactive) | > 100 µM (inactive) | > 100 µM (inactive) | > 100 µM (inactive) | > 100 µM (inactive) | > 100 µM (inactive) |  |  | > 100 µM (inactive) |  |  |  | > 100 µM (inactive) |  | > 100 µM (inactive) |
| CCOC(=O)CC1=N/C(=N/c2cc(Cl)ccc2Cl)SC1 | 70.5 µM (inactive) | > 100 µM (inactive) |  | > 100 µM (inactive) | > 100 µM (inactive) | > 100 µM (inactive) | > 100 µM (inactive) | 76.4 µM (inactive) | 78 µM (inactive) | > 100 µM (inactive) | > 100 µM (inactive) | 42.5 µM (inactive) | > 100 µM (inactive) | > 100 µM (inactive) | > 100 µM (inactive) | > 100 µM (inactive) |
| Cc1ccc(NC(=O)C(=O)C2C(=O)NC(=O)NC2=O)cc1C | > 100 µM (inactive) | > 100 µM (inactive) | > 100 µM (inactive) | > 100 µM (inactive) | > 100 µM (inactive) | > 100 µM (inactive) | > 100 µM (inactive) | > 100 µM (inactive) | > 100 µM (inactive) | > 100 µM (inactive) | > 100 µM (inactive) | > 100 µM (inactive) | > 100 µM (inactive) | > 100 µM (inactive) |  | > 100 µM (inactive) |
| O=C1C2c3[nH]c4ccccc4c3[C@@H]3CCCCCCCCCCC3C2C(=O)N1c1ccccc1 (stereo partly specified) | 16.1 µM (inactive) | 10.4 µM (inactive) |  | 18.2 µM (inactive) | 12.4 µM (inactive) | 15.2 µM (inactive) | 16.1 µM (inactive) |  | 3.18 µM (inactive) | 25.9 µM (inactive) | 78 µM (inactive) | 8.67 µM (inactive) | 15.3 µM (inactive) | 13.6 µM (inactive) |  |  |
| CCOC(=O)Nn1c(C)cc(C(=O)OC)c1C | > 100 µM (inactive) | > 100 µM (inactive) | > 100 µM (inactive) | > 100 µM (inactive) | > 100 µM (inactive) | > 100 µM (inactive) | > 100 µM (inactive) | > 100 µM (inactive) | > 100 µM (inactive) | > 100 µM (inactive) | > 100 µM (inactive) | > 100 µM (inactive) | > 100 µM (inactive) | > 100 µM (inactive) | > 100 µM (inactive) |  |
| COC[C@H](C)/N=C/N1CCc2ccccc2C1(Cc1ccccc1)Cc1ccccc1 |  | 16.9 µM (inactive) | 10.4 µM (inactive) | 13.8 µM (inactive) | 17.3 µM (inactive) | 22.6 µM (inactive) | 16.5 µM (inactive) | 12.7 µM (inactive) | 17.8 µM (inactive) | 21.2 µM (inactive) | 47.9 µM (inactive) | 6.97 µM (inactive) | 10.3 µM (inactive) | 21.9 µM (inactive) |  | 15.6 µM (inactive) |
| CC(=O)OC1[C@H]2c3cc4c(cc3CN3CCC(=C[C@@H]1O)C23)OCO4 (stereo partly specified) | > 100 µM (inactive) | > 100 µM (inactive) | > 100 µM (inactive) | > 100 µM (inactive) | 56.8 µM (inactive) | > 100 µM (inactive) | > 100 µM (inactive) | > 100 µM (inactive) | 47.6 µM (inactive) | 33.1 µM (inactive) |  | > 100 µM (inactive) | 44.5 µM (inactive) | 37.2 µM (inactive) |  |  |
| COc1ccc(/C=C/C(=O)c2c(-c3ccccc3)nn(C)c(=O)c2N2CCCCC2)cc1 | 14.7 µM (inactive) | 21.4 µM (inactive) | 3.94 µM (inactive) | 14.5 µM (inactive) | 18.4 µM (inactive) | 24.5 µM (inactive) | 14.2 µM (inactive) | 10.7 µM (inactive) |  | 40.1 µM (inactive) | 12.8 µM (inactive) | 11.8 µM (inactive) | 20.7 µM (inactive) | 19.7 µM (inactive) |  | 3.81 µM (inactive) |
